Measurements taken from patent US7314614B1, “Recombinant sendai virus vector for introducing exogenous genes to airway epithelia” (priority 1999, dated 2008).

Target: T1, CFTR (Homo sapiens, UniProt P13569)
T1 construct: expressed in transfected cells; host or cells: COS7 cells infected with the recombinant Sendai virus SeV/CFTR (CFTR cDNA in the NotI site of pSeV18+b(+))
Experiment: Whole-cell patch clamp of COS7 cells infected with CFTR-expressing Sendai virus
Format: cell-based
Settings: COS7 cells expressing sample-1 SeV/CFTR
Procedure: COS7 cells were infected with the prepared CFTR-expressing Sendai virus (sample-1 SeV/CFTR), and the obtained infected cells were analyzed by the whole-cell patch clamp technique. […] A glass pipette containing a pipette solution was contacted with a cell within a bath solution, and negative pressure was applied to remove the cell membranes. In this occasion, the pipette solution contains 145 mM NMDG^+, 148.4 mM Cl^−, […], 5 mM ATP, 10 mM glucose, 0.1 mM EGTA, and 10 mM HEPES (titrated by Tris, pH 7.4), and the bath solution contains 141 mM Na^+, 152.4 mM Cl^−, […], 5 mM K^+, 1.7 mM Mg^2+, 2 mM Ca^2+, 10 mM glucose, 0.1 mM EGTA, and 10 mM HEPES (titrated by Tris, pH 7.4). The effects of forskolin on the membrane current in COS7 cells expressing sample-1 SeV/CFTR were examined by whole-cell recording (FIG. 14). […] The influx current was reproduced by adding forskolin again after a single wash, and was again suppressed by glibenclamide, which confirmed that the observed change in current was a specific drug-induced response.

T1 sequence (P13569 whole entry): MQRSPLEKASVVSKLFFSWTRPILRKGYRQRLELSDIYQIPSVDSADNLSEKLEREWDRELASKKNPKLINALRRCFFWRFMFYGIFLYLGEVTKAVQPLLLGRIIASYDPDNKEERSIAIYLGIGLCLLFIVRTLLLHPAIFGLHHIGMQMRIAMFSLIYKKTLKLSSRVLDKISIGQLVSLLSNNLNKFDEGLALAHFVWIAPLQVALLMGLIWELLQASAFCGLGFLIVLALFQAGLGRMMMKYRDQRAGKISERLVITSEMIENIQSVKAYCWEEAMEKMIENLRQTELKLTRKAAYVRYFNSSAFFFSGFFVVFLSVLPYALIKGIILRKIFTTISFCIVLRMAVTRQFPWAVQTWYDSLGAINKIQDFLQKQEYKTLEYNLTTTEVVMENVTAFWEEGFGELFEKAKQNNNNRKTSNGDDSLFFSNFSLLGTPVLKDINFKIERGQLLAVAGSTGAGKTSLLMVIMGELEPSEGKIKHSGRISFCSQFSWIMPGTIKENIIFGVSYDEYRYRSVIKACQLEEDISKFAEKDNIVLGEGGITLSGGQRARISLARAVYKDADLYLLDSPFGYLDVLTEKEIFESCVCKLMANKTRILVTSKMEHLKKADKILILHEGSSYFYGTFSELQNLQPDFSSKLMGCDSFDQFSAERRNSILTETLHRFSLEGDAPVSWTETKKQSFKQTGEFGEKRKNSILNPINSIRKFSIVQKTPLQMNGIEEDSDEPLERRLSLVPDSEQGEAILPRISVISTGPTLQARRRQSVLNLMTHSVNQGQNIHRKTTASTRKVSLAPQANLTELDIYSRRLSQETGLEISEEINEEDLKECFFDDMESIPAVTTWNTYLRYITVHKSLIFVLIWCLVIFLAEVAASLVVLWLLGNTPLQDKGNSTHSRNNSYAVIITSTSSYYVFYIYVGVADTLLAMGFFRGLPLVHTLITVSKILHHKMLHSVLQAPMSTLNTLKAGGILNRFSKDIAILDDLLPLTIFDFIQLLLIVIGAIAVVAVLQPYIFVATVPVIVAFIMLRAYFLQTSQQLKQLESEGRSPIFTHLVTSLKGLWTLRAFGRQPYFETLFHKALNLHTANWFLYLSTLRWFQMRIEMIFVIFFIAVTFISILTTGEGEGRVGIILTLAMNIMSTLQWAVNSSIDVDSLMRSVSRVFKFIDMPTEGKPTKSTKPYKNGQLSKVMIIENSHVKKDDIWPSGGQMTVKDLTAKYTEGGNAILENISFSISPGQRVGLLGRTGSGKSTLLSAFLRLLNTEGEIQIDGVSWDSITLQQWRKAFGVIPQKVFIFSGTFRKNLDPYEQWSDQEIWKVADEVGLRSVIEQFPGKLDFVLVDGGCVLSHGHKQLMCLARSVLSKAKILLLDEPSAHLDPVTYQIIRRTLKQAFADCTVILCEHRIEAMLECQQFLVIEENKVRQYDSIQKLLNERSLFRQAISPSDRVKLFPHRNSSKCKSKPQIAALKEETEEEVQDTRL

COc1ccc(Cl)cc1C(=O)NCCc1ccc(S(=O)(=O)NC(=O)NC2CCCCC2)cc1 [Glibenclamide]
effect on forskolin-induced Cl− currents (300 μM): inhibited
effect on forskolin-induced influx current (whole-cell recording, reproduced after wash (FIG. 14)): suppressed
